Laboratory results: patent US20260355330A1, “CELL PENETRATING PEPTIDES AND USES THEREOF” (VECTIOPEP OÜ, priority 2022, published 2026)
Positions of bridges follow the written chain, without caps; N, C: chain ends. Residues, ends and D or L forms follow the SMILES beside them. Chains are numbered I, II in the order given. *: point of attachment. Docosanoyl = CCCCCCCCCCCCCCCCCCCCCC(=O)*; Arachidoyl = CCCCCCCCCCCCCCCCCCCC(=O)*

Columns and labels:
CHO-K1 cells = test: Delivery of reporter mRNA with CPPs in cell culture (luciferase luminescence 24 h post-transfection); type: cell-based; conditions: for Average RLU/mg (reporter levels post-transfection of mRNA): firefly luciferase mRNA, 0.1 μg per well, charge ratio 3:1, serum containing media, 24 h, RLU normalised to total protein in lysate; for Efficiency of mRNA transfection/delivery: FIG. 1 / Table 2, cell culture; for Delivery of mRNA compared to NF55: comparator NF55
Protocol: FIG. 1: Delivery of reporter mRNA with CPPs in cell culture—evaluation of reporter levels post-transfection (relative light units normalised to total protein in the cell lysate (RLU/mg)). Naked mRNA treated cells were used as controls and Lipofectamine3000 (LF3000) was used to compare the transfection efficacy with a liposome-based transfection reagent.
Adherent CHO-K1 cells were grown in Dulbecco's Modified Eagle's Medium (DMEM), which were supplemented with 0.1 mM non-essential amino acids, 1.0 mM sodium pyruvate, 100 U/ml penicillin, and […]. For complete media, 10% (final) fetal bovine serum (FBS) was added. Cells were maintained in a humidified incubator at 37 °C, 5% CO2. Cell viability and confluence was assessed daily and the cell density was reduced regularly. For cell counting, we used the CytoSMART cell counter accompanied by 0.4% trypan blue staining prior measurement. The multi-well plates with cell cultures used for experiments were incubated in a humidified incubator at 37 °C, 5% CO2.
For in vitro experiments 0.1 μg of nucleic acid (plasmid DNA (pDNA) or mRNA) was used per 96-well plate well. For CPP/NA complex formation, the diluted NA was mixed with CPP in water. Complexes were formed based on the theoretical charge ratio (CR) of positive charges from the peptide in excess to the negative charges from nucleic acid backbone, at charge ratio 3:1 with peptide in excess. Commercial reagent Lipofectamine3000 (LF3000) was used according to the manufacturer's recommendations for the transfection of adherent cells.
For reporter luminescence (expressed from firefly luciferase encoding mRNA or plasmid pDNA) assessment in adherent cell culture, 10,000 cells per 96-well plate well were seeded in 100 μl of media one day prior to transfection. Shortly before transfection, cell media was replaced with 100 μl of serum containing (10% foetal bovine serum) DMEM media. CPPs and mRNA or pDNA were mixed at a charge ratio 3:1 in ultrapure water and incubated at room temperature before addition to cells in serum containing media. Cells were transfected with 0.1 μg of mLuc per well.
24 hours post-transfection, the media was aspirated, cells were washed with 1×PBS, and 30 μl of lysis buffer (0.1% Triton X100 in 1×PBS) was added. Cells were incubated with lysis buffer for 20 min. to lyse the cells. From the lysate, 20 μl was transferred to a black frame white well 96-well plate for luminescence measurement after addition of substrate luciferin (PerkinElmer) in buffer. The luminescence signal was detected with GloMax® 96 microplate luminometer equipped with GloMax® 1.9.2 software (Promega). RLU values were converted to RLU/mg by normalization to total protein in cell lysate, reflecting total number of cells. For protein detection, a Pierce™ BCA Protein Assay Kit was used.
The present inventors have previously reported CPPs developed from the NickFect (NF) and PepFect (PF) families for plasmid (pDNA), siRNA and miRNA delivery (see, e.g. WO 2020/144317, WO 2010/039088 and WO 2012/113846). With the emergence of mRNA-based therapeutics, it was decided to investigate peptides for their ability to deliver mRNA. It was assumed that CPPs that are efficient for siRNA and miRNA delivery, e.g. histidine containing CPPs (Porosk et. al. (2019)), may be good candidates for the delivery of mRNA. Therefore, CPPs from each main family (NF55-, PF14- and NF70-derived CPPs) were tested for mRNA delivery/transfection. Naked mRNA treated and untreated cells were used as control groups. LF3000 was used to compare the transfection efficacy of liposome-based transfection reagents with the CPPs (FIG. 1).

spleen of BALB/c mice = test: In vivo delivery of mRNA with CPPs - reporter levels in the spleen; conditions: for Efficacy of mRNA delivery into the spleen in vivo: FIG. 5 / Table 5; for Reporter levels in the spleen (RLU): mRNA, tail vein injection, spleens harvested 16 hours after single injection, whole tissue homogenate
Protocol: FIG. 5: Delivery of mRNA with CPPs in vivo—reporter levels in the spleen. Spleens were harvested post mortem 16 hours post-injection. The reporter levels (RLU) were evaluated from the whole tissue homogenate.
The transfection complexes (CPP/mRNA) were formed using 10 μg of mRNA mixed with each peptide at indicated charge ratios (CRs) in MQ water in a final volume of 100 μl. CRs were calculated theoretically and account for both the positive charges of the peptide and negative charges of the nucleic acid. The transfection complexes (CPP/mRNA and CPP/pDNA) were formed using 50 μg of mRNA mixed with each peptide at indicated charge ratios (CRs) in MQ water in a final volume of 168 μl. The complexes were incubated for 30 minutes at room temperature and then mixed with equal volume of 10% glucose (resulting in a final solution of 5% glucose in a total volume of 200 μl for 10 μg dose groups and 336 μl for 50 μg dose groups) and immediately injected intravenously via the tail vein.
The reporter gene (luciferase) expression levels were evaluated from the tissue homogenate post mortem 16-24 h after single injection.
CPPs and mRNA complexes were injected through the tail vein of BALB/c mice, spleens were harvested 16 hours after the single injection and reporter signal was measured from the whole tissue homogenate (FIG. 5 and Table 5).

Compound | Average RLU/mg (reporter levels post-transfection of mRNA) (CHO-K1 cells) | Efficiency of mRNA transfection/delivery (CHO-K1 cells; in words) | Delivery of mRNA compared to NF55 (CHO-K1 cells; in words) | Efficacy of mRNA delivery into the spleen in vivo (spleen of BALB/c mice; in words) | Delivery of mRNA in vivo compared to NF54 and/or NF55 (spleen of BALB/c mice; in words, comparator NF54 and/or NF55) | Reporter levels in the spleen (RLU) (spleen of BALB/c mice) | Delivery of mRNA compared to NF54 (CHO-K1 cells; in words, comparator NF54)
CCCCCCCCCCCCCCCCCC(=O)N[C@@H](C)C(=O)NCC(=O)N[C@@H](Cc1ccc(O)cc1)C(=O)N[C@@H](CC(C)C)C(=O)N[C@@H](CC(C)C)C(=O)NCC(=O)NCCC[C@H](N)C(=O)N[C@H](C(=O)N[C@@H](CC(N)=O)C(=O)N[C@@H](CC(C)C)C(=O)N[C@@H](CCCCN)C(=O)N[C@@H](C)C(=O)N[C@@H](CC(C)C)C(=O)N[C@@H](C)C(=O)N[C@@H](C)C(=O)N[C@@H](CC(C)C)C(=O)N[C@@H](C)C(=O)N[C@@H](C)C(=O)N[C@@H](CCCCN)C(=O)N[C@H](C(=O)N[C@@H](CC(C)C)C(N)=O)[C@@H](C)CC)[C@@H](C)CC [NF54] | 2 160 000 000 RLU/mg | the most efficient | significantly improved delivery of mRNA over NF55 | delivered mRNA into the spleen in vivo with high efficacy | good improvement in mRNA delivery in vivo over NF55 | 225 675 RLU | –
CCCCCCCCCCCCCCCCCCCC(=O)N[C@@H](C)C(=O)NCC(=O)N[C@@H](Cc1ccc(O)cc1)C(=O)N[C@@H](CC(C)C)C(=O)N[C@@H](CC(C)C)C(=O)NCC(=O)NCCC[C@H](N)C(=O)N[C@H](C(=O)N[C@@H](CC(N)=O)C(=O)N[C@@H](CC(C)C)C(=O)N[C@@H](CCCCN)C(=O)N[C@@H](C)C(=O)N[C@@H](CC(C)C)C(=O)N[C@@H](C)C(=O)N[C@@H](C)C(=O)N[C@@H](CC(C)C)C(=O)N[C@@H](C)C(=O)N[C@@H](CCCCN)C(=O)N[C@@H](C)C(=O)N[C@H](C(=O)N[C@@H](CC(C)C)C(N)=O)[C@@H](C)CC)[C@@H](C)CC [NF410] | 1 080 000 000 RLU/mg | the most efficient | – | – | – | 36 670 RLU | –
CCCCCCCCCCCCCCCCCCCCCC(=O)N[C@@H](C)C(=O)NCC(=O)N[C@@H](Cc1ccc(O)cc1)C(=O)N[C@@H](CC(C)C)C(=O)N[C@@H](CC(C)C)C(=O)NCC(=O)NCCC[C@H](N)C(=O)N[C@H](C(=O)N[C@@H](CC(N)=O)C(=O)N[C@@H](CC(C)C)C(=O)N[C@@H](CCCCN)C(=O)N[C@@H](C)C(=O)N[C@@H](CC(C)C)C(=O)N[C@@H](C)C(=O)N[C@@H](C)C(=O)N[C@@H](CC(C)C)C(=O)N[C@@H](C)C(=O)N[C@@H](CCCCN)C(=O)N[C@@H](C)C(=O)N[C@H](C(=O)N[C@@H](CC(C)C)C(N)=O)[C@@H](C)CC)[C@@H](C)CC [NF411] | 2 090 000 000 RLU/mg | the most efficient | good improvement in delivery of mRNA over NF55 | delivered mRNA into the spleen in vivo with high efficacy | – | 161 716 RLU | equivalent delivery of mRNA to NF54
CCCCCCCCCCCCCCCCCCCC(=O)N[C@@H](C)C(=O)NCC(=O)N[C@@H](Cc1ccc(O)cc1)C(=O)N[C@@H](CC(C)C)C(=O)N[C@@H](CC(C)C)C(=O)NCC(=O)NCCCC[C@H](N)C(=O)N[C@H](C(=O)N[C@@H](CC(N)=O)C(=O)N[C@@H](CC(C)C)C(=O)N[C@@H](CCCCN)C(=O)N[C@@H](C)C(=O)N[C@@H](CC(C)C)C(=O)N[C@@H](C)C(=O)N[C@@H](C)C(=O)N[C@@H](CC(C)C)C(=O)N[C@@H](C)C(=O)N[C@@H](CCCCN)C(=O)N[C@@H](C)C(=O)N[C@H](C(=O)N[C@@H](CC(C)C)C(N)=O)[C@@H](C)CC)[C@@H](C)CC [NF412] (I: H-KINLKALAALAKAIL-NH2 / II: Arachidoyl-AGYLLG; amide I:1-II:C) | 393 000 000 RLU/mg | – | – | – | – | 36 759 RLU | –
CCCCCCCCCCCCCCCCCCCCCC(=O)N[C@@H](C)C(=O)NCC(=O)N[C@@H](Cc1ccc(O)cc1)C(=O)N[C@@H](CC(C)C)C(=O)N[C@@H](CC(C)C)C(=O)NCC(=O)NCCCC[C@H](N)C(=O)N[C@H](C(=O)N[C@@H](CC(N)=O)C(=O)N[C@@H](CC(C)C)C(=O)N[C@@H](CCCCN)C(=O)N[C@@H](C)C(=O)N[C@@H](CC(C)C)C(=O)N[C@@H](C)C(=O)N[C@@H](C)C(=O)N[C@@H](CC(C)C)C(=O)N[C@@H](C)C(=O)N[C@@H](CCCCN)C(=O)N[C@@H](C)C(=O)N[C@H](C(=O)N[C@@H](CC(C)C)C(N)=O)[C@@H](C)CC)[C@@H](C)CC [NF413] (I: H-KINLKALAALAKAIL-NH2 / II: Docosanoyl-AGYLLG; amide I:1-II:C) | 678 000 000 RLU/mg | – | – | – | – | 50 495 RLU | –
CCCCCCCCCCCCCCCC(=O)N[C@@H](C)C(=O)NCC(=O)N[C@@H](Cc1ccc(O)cc1)C(=O)N[C@@H](CC(C)C)C(=O)N[C@@H](CC(C)C)C(=O)NCC(=O)NCC[C@H](N)C(=O)N[C@H](C(=O)N[C@@H](CC(N)=O)C(=O)N[C@@H](CC(C)C)C(=O)N[C@@H](CCCCN)C(=O)N[C@@H](C)C(=O)N[C@@H](CC(C)C)C(=O)N[C@@H](C)C(=O)N[C@@H](C)C(=O)N[C@@H](CC(C)C)C(=O)N[C@@H](C)C(=O)N[C@@H](CCCCN)C(=O)N[C@@H](C)C(=O)N[C@H](C(=O)N[C@@H](CC(C)C)C(N)=O)[C@@H](C)CC)[C@@H](C)CC [NF422] | 159 000 000 RLU/mg | – | – | – | – | – | –
CCCCCCCCCCCCCCCCCCCCCC(=O)N[C@@H](C)C(=O)NCC(=O)N[C@@H](Cc1ccc(O)cc1)C(=O)N[C@@H](CC(C)C)C(=O)N[C@@H](CC(C)C)C(=O)NCC(=O)NCC[C@H](N)C(=O)N[C@H](C(=O)N[C@@H](CC(N)=O)C(=O)N[C@@H](CC(C)C)C(=O)N[C@@H](CCCCN)C(=O)N[C@@H](C)C(=O)N[C@@H](CC(C)C)C(=O)N[C@@H](C)C(=O)N[C@@H](C)C(=O)N[C@@H](CC(C)C)C(=O)N[C@@H](C)C(=O)N[C@@H](CCCCN)C(=O)N[C@@H](C)C(=O)N[C@H](C(=O)N[C@@H](CC(C)C)C(N)=O)[C@@H](C)CC)[C@@H](C)CC [NF423] | 556 000 000 RLU/mg | – | – | – | – | – | –
NF72: SEQ ID NO: 15; HHHHHHYHHGO*ILLKALKALAKAIL; control/comparator construct [reference compound] | 78 023 RLU/mg | – | – | – | – | – | –
